Test results: patent publication US7642269B2, “Pyrrolo[3,2-B]pyridine derivatives and processes for the preparation thereof” (Yuhan Corporation, priority 2005, dated 2010)
Counter-ions that a name gives are not always drawn.

What follows are compounds tested against T1, H^+/K^+-ATPase (Sus scrofa, UniProt P19156) (assay: Inhibitory effects on proton pump (H^+/K^+-ATPase) activity, hog gastric vesicles). Settings: K^+ stimulated H^+/K^+-ATPase activity, hog gastric vesicle, Pi measured at 620 nm.
T1 construct: used as an enzyme source of the in vitro enzyme reaction assay of proton pump; from tissue; host or cells: hog gastric fundic mucosa (membrane vesicles, lyophilized)
Assay type: biochemical
Experimental: Preparation of Gastric Proton Pump Vesicles
The hog fundic regions containing parietal and peptic cells were scraped with slide-glass. The collected cells were suspended in 10 ml of 0.25M sucrose buffer and homogenized using a tight-fitting Teflon-glass homogenizer. The homogenate was centrifuged for 35 min at 8,000 rpm and the pellet was discarded. The supernatant was further centrifuged for 75 min at 25,000 rpm. The resulting pellets were re-suspended in the sucrose buffer (10 ml), and then the suspension was laid onto discontinuous density gradients consisting of 0.25M sucrose buffer and isolation medium containing 9% Ficoll (w/w). After being centrifuged for 3 hours and 15 minutes at 100,000×g, the material at the interface of sucrose buffer and Ficoll solution was collected and then centrifuged for 40 minutes at 100,000×g. The resulting pellets were re-suspended in 1 ml of 5 mM Hepes/Tris buffer (pH 6.1). This material was lyophilized and stored at −70° C. and used as an enzyme source of the in vitro enzyme reaction assay of proton pump.
1-2. Measurement of Inhibitory Effects on Proton Pump (H+/K+-ATPase) activity
The inhibitory effects of the compounds of the present invention against proton pump activity were evaluated in 96-well plate. In this assay, the K^+ specific H^+/K^+-ATPase activity was calculated based on the difference between the activity of H^+/K^+-ATPase activity with K^+ and without K^+ ion. In 96-well plate, 1% dimethylsulfoxide (DMSO) in buffer was added to negative and positive control groups and the diluted compounds of the present invention in buffer were added to test group. All assays were performed in 100 μl reaction volume at room temperature, and the hog gastric vesicle was kept in ice before use. At the beginning of the reaction, 10 μl of reaction buffer containing 1% DMSO was added to the negative and positive control groups and to each concentration of compounds in the test group. Then lyophilized vesicle in 5 mM Pipes/Tris buffer (pH 6.1) was pre-incubated in the presence of various concentrations of test compounds. After a 5 minute incubation, negative and positive buffers were respectively added to the previous reaction mixture. As the substrate, ATP was added to the reaction buffer, and incubated for 30 minutes at 37° C. Enzymatic activity was stopped by the addition of colorimetric reagent (2× malachite green, 1× ammonium molybdate, 1× polyvinyl alcohol, 2× H2O) and the amount of mono phosphate (Pi) in the reaction was measured at 620 nm using the micro plate reader (Genios Pro, TECAN). The difference between the Pi production with K^+ and without K^+ is taken as K^+ stimulated H^+/K^+-ATPase activity.

T1 sequence (P19156 2-1034 limits assumed): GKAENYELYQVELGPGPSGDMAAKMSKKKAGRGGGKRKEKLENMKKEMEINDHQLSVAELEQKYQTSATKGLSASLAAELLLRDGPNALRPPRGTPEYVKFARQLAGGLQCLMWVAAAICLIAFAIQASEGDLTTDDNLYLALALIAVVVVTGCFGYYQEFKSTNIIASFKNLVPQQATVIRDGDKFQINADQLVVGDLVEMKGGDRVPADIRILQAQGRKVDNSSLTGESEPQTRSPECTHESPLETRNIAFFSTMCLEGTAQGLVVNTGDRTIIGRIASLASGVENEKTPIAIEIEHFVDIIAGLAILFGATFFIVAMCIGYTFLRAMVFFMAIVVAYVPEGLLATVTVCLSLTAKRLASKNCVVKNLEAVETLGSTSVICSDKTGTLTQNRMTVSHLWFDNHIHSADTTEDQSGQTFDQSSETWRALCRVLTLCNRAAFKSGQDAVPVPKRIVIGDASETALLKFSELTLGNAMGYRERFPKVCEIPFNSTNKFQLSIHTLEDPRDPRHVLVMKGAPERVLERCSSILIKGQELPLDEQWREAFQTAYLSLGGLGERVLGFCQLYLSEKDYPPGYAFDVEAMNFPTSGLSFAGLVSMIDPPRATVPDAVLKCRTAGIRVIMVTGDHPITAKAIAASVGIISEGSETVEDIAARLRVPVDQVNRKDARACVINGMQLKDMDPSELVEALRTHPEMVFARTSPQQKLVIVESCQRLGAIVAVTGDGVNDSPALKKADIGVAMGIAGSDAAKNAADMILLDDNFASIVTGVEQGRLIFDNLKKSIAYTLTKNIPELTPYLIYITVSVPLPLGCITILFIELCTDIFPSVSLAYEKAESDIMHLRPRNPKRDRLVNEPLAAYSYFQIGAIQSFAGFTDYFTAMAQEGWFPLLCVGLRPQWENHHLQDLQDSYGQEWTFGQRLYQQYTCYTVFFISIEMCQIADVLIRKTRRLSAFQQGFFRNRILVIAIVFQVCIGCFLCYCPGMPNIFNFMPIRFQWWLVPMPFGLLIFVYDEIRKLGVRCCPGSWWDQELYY
T1 sequence (P18434 whole entry partner): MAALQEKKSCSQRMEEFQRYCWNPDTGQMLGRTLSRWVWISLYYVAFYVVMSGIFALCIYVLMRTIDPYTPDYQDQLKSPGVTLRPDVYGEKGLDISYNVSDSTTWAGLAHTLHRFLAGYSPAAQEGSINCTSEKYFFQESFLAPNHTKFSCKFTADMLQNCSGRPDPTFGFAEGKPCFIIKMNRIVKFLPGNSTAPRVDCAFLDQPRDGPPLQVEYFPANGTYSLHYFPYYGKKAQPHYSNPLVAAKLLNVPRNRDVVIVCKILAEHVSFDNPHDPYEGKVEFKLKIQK

| Structure (SMILES) | IC50 |
| --- | --- |
| Cc1c(C)n(Cc2ccccc2F)c2c(N3CCc4ccccc4C3)ccnc12 [Example 9, 1-(2-fluorobenzyl)-7-(1,2,3,4-tetrahydroisoquinolin-2-yl)-2,3-dimethyl-1H-pyrrolo[3,2-b]pyridine hydrochloride] | 330 nM |
| CCOc1ccccc1COc1ccnc2c(C)c(C)n(CCOC)c12 [Example 162, 7-(2-ethoxybenzyloxy)-1-(2-methoxyethyl)-2,3-dimethyl-1H-pyrrolo[3,2-b]pyridine hydrochloride] | 1150 nM |
| Cc1cccc(Cn2c(C)c(C)c3nccc(OCc4ccc5c(c4)OCO5)c32)c1 [Example 113, 7-(benzo[1,3]dioxol-5-ylmethoxy)-2,3-dimethyl-1-(3-methylbenzyl)-1H-pyrrolo[3,2-b]pyridine hydrochloride] | 1420 nM |
| Cc1c(C)n(Cc2ccccc2)c2c(NCc3ccc(F)cc3)ccnc12 [Example 261, N-(1-benzyl-2,3-dimethyl-1H-pyrrolo[3,2-b]pyridin-7-yl)-4-fluorobenzylamine hydrochloride] | 2060 nM |
| CCCn1c(C)c(C)c2nccc(OCc3cc(F)cc(F)c3)c21 [Example 182, 7-(3,5-difluorobenzyloxy)-2,3-dimethyl-1-propyl-1H-pyrrolo[3,2-b]pyridine hydrochloride] | 3880 nM |
| Cc1nc2c(C)c(C)n(Cc3ccccc3)c2c(NCc2ccc(F)cc2)c1C [Example 268, N-(1-benzyl-2,3,5,6-tetramethyl-1H-pyrrolo[3,2-b]pyridin-7-yl)-4-fluorobenzylamine hydrochloride] | 1250 nM |
| Cc1c(C)n(Cc2ccccc2F)c2c(OCc3ccc4c(c3)OCO4)ccnc12 [Example 101, 7-(benzo[1,3]dioxol-5-ylmethoxy)-1-(2-fluorobenzyl)-2,3-dimethyl-1H-pyrrolo[3,2-b]pyridine hydrochloride] | 1010 nM |
| Cc1cccc(COc2ccnc3c(C)c(C)n(CC4CC4)c23)c1 [Example 154, 1-cyclopropylmethyl-2,3-dimethyl-7-(3-methylbenzyloxy)-1H-pyrrolo[3,2-b]pyridine hydrochloride] | 240 nM |
| Cc1c(C)n(Cc2ccc(F)cc2)c2c(OCc3ccc(Br)cc3)ccnc12 [Example 221, 7-(4-bromobenzyloxy)-1-(4-fluorobenzyl)-2,3-dimethyl-1H-pyrrolo[3,2-b]pyridine hydrochloride] | 180 nM |
| Cc1c(C)n(Cc2ccc(F)cc2)c2c(OCc3ccc4c(c3)OCO4)ccnc12 [Example 118, 7-(benzo[1,3]dioxol-5-ylmethoxy)-1-(4-fluorobenzyl)-2,3-dimethyl-1H-pyrrolo[3,2-b]pyridine hydrochloride] | 460 nM |
| Cc1ccc(Cn2c(C)c(C)c3nccc(OCc4cc(F)cc(F)c4)c32)cc1 [Example 196, 7-(3,5-difluorobenzyloxy)-1-(4-methylbenzyl)-2,3-dimethyl-1H-pyrrolo[3,2-b]pyridine hydrochloride] | 380 nM |
| Cc1[nH]c2c(OCc3ccc(Br)cc3)ccnc2c1C [Example 218, 7-(4-bromobenzyloxy)-2,3-dimethyl-1H-pyrrolo[3,2-b]pyridine] | 3280 nM |
| C=CCn1c(C)c(C)c2nccc(NCc3ccc(F)cc3)c21 [Example 254, N-(1-allyl-2,3-dimethyl-1H-pyrrolo[3,2-b]pyridin-7-yl)-4-fluorobenzylamine hydrochloride] | 210 nM |
| Cc1ccc(Cn2c(C)c(C)c3nccc(OCc4cccc(C)c4)c32)cc1 [Example 156, 2,3-dimethyl-1-(4-methylbenzyl)-7-(3-methylbenzyloxy)-1H-pyrrolo[3,2-b]pyridine hydrochloride] | 610 nM |
| COc1cccc(Cn2c(C)c(C)c3nccc(OCc4ccc(Cl)cc4Cl)c32)c1 [Example 141, 7-(2,4-dichlorobenzyloxy)-1-(3-methoxybenzyl)-2,3-dimethyl-1H-pyrrolo[3,2-b]pyridine hydrochloride] | 90 nM |
| Cc1c(C)n(Cc2ccc(Cl)cc2)c2c(OCc3ccc(Cl)cc3)ccnc12 [Example 88, 7-(4-chlorobenzyloxy)-1-(4-chlorobenzyl)-2,3-dimethyl-1H-pyrrolo[3,2-b]pyridine hydrochloride] | 670 nM |
| COCn1c(C)c(C)c2nccc(OCc3ccc(Cl)cc3)c21 [Example 74, 7-(4-chlorobenzyloxy)-1-methoxymethyl-2,3-dimethyl-1H-pyrrolo[3,2-b]pyridine hydrochloride] | 1080 nM |
| Cc1c(C)n(Cc2ccc(Cl)cc2)c2c(OCc3cc(F)cc(F)c3)ccnc12 [Example 183, 1-(4-chlorobenzyl)-7-(3,5-difluorobenzyloxy)-2,3-dimethyl-1H-pyrrolo[3,2-b]pyridine hydrochloride] | 1210 nM |
| Cc1c(C)n(Cc2ccc3ccccc3c2)c2c(OCc3ccc(F)cc3)ccnc12 [Example 37, 7-(4-fluorobenzyloxy)-2,3-dimethyl-1-(naphthalen-2-ylmethyl)-1H-pyrrolo[3,2-b]pyridine hydrochloride] | 1260 nM |
| Cc1c(C)n(Cc2ccc(F)cc2)c2c(OCc3ccc(Cl)cc3Cl)ccnc12 [Example 140, 7-(2,4-dichlorobenzyloxy)-1-(4-fluorobenzyl)-2,3-dimethyl-1H-pyrrolo[3,2-b]pyridine hydrochloride] | 80 nM |
| Cc1ccc(Cn2c(C)c(C)c3nccc(OCc4ccc5c(c4)OCO5)c32)cc1 [Example 114, 7-(benzo[1,3]dioxol-5-ylmethoxy)-1-(4-methylbenzyl)-2,3-dimethyl-1H-pyrrolo[3,2-b]pyridine hydrochloride] | 70 nM |
| CC(=O)OCCn1c(C)c(C)c2nccc(OCc3ccc(Cl)cc3)c21 [Example 85, 1-(2-acetoxyethyl)-7-(4-chlorobenzyloxy)-2,3-dimethyl-1H-pyrrolo[3,2-b]pyridine hydrochloride] | 170 nM |
| Cc1c(C)n(Cc2cccc(F)c2)c2c(OCc3ccc(Cl)cc3)ccnc12 [Example 93, 7-(4-chlorobenzyloxy)-1-(3-fluorobenzyl)-2,3-dimethyl-1H-pyrrolo[3,2-b]pyridine hydrochloride] | 50 nM |
| Cc1c(C)n(Cc2ccccc2)c2c(OCc3ccc(Cl)cc3Cl)ccnc12 [Example 136, 1-benzyl-7-(2,4-dichlorobenzyloxy)-2,3-dimethyl-1H-pyrrolo[3,2-b]pyridine hydrochloride] | 50 nM |
| COCCn1c(C)c(C)c2nccc(NCc3ccc(F)cc3)c21 [Example 256, N-[1-(2-methoxyethyl)-2,3-dimethyl-1H-pyrrolo[3,2-b]pyridin-7-yl]-4-fluorobenzylamine hydrochloride] | 2080 nM |
| COCCn1c(C)c(C)c2nccc(OCc3ccc(F)cc3)c21 [Example 131, 7-(4-fluorobenzyloxy)-1-(2-methoxyethyl)-2,3-dimethyl-1H-pyrrolo[3,2-b]pyridine camphosulfonate] | 60 nM |
| COc1ccc(Cn2c(C)c(C)c3nccc(N4CCc5ccccc5C4)c32)cc1 [Example 10, 1-(4-methoxybenzyl)-7-(1,2,3,4-tetrahydroisoquinolin-2-yl)-2,3-dimethyl-1H-pyrrolo[3,2-b]pyridine hydrochloride] | 690 nM |
| Cc1c(C)n(Cc2ccccc2F)c2c(OCc3ccc(Cl)cc3)ccnc12 [Example 89, 7-(4-chlorobenzyloxy)-1-(2-fluorobenzyl)-2,3-dimethyl-1H-pyrrolo[3,2-b]pyridine hydrochloride] | 340 nM |
